Data on 6 compounds can be found in paper PMC6258903 (Nature, 2014).

Where only a bound is given, the exact number is not on record here.

Series [1] concerns the target T1, Axl (Homo sapiens, UniProt P30530).
T1 sequence (P30530 26-894): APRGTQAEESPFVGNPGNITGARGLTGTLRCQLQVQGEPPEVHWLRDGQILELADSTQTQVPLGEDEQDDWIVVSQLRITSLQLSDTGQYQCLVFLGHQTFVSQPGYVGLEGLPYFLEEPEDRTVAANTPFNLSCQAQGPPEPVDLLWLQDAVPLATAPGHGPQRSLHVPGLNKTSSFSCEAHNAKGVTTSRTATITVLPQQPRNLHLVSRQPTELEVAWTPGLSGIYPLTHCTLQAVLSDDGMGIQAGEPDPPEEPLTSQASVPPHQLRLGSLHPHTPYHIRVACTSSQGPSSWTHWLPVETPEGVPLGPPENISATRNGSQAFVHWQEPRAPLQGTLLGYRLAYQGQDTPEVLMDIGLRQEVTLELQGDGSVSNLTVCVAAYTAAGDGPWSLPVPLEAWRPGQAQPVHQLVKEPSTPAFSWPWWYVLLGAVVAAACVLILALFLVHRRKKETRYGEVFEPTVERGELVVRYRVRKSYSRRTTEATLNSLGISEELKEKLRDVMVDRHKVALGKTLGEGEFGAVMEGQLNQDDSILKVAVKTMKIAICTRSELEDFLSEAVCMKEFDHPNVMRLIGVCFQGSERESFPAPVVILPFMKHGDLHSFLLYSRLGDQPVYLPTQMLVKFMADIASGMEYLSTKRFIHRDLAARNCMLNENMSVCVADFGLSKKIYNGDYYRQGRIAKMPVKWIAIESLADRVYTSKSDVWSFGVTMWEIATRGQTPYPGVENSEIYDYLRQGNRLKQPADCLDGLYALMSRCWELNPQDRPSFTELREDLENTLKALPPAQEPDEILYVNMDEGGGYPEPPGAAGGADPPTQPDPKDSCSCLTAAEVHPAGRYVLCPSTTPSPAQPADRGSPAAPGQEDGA
The series is described as follows: Tracer-based kinase binding assay.

The subject of series [2] is 95 different cancer cell lines. The series is described as follows: Proliferation assay on a panel of cancer cell lines. Type of series: cell-based.
Series [3] relates to B16F10 melanoma. The series is described as follows: B16F10 metastatic melanoma model, low dose warfarin in drinking water. The conditions noted are these: for melanoma metastases to the lungs and distal organs: low dose warfarin 0.5mg/l in drinking water. It is filed as in vivo, mice.
For series [4], the system named is RMA-S cells. The series is described as follows: In vivo NK cell cytotoxicity towards RMA-S cells. The conditions noted are these: Cbl-b+/+ mice treated for 7 days before inoculation.
Series [5] has as its system RMA-Rae1 cells. The series is described as follows: In vivo NK cell cytotoxicity towards RMA-Rae1 cells. The note with it: warfarin, Cbl-b+/+ mice treated for 7 days before inoculation.
Series [6] can be described thus: Prothrombine time and bleeding in warfarin-treated mice.

Turning to `CCOc1ccn(-c2ccc(F)cc2)c(=O)c1C(=O)Nc1ccc(Oc2ccnc(N)c2Cl)c(F)c1` [BMS-777607/ASLAN002], the “inhibitory activity of reference compounds in the Axl HTRF assay” value in series [1] is “showed inhibitory activities as expected”.
For `Cc1nc(Nc2ncc(C(=O)Nc3c(C)cccc3Cl)s2)cc(N2CCN(CCO)CC2)n1` [dasatinib], the IC50 in series [2] (read-out: IC50 proliferation, non-specific kinase inhibitors) is under 0.1 µM.
Turning to `Cc1ccc(NC(=O)c2ccc(CN3CCN(C)CC3)cc2)cc1Nc1nccc(-c2cccnc2)n1` [imatinib], in series [2] (same panel, e.g. K562 cells), the “proliferation inhibition profile, specific kinase blockers” value was “inhibit proliferation of only a few cell lines”.
As to `CN[C@@H]1C[C@H]2O[C@@](C)([C@@H]1OC)n1c3ccccc3c3c4c(c5c6ccccc6n2c5c31)C(=O)NC4` [staurosporine], in series [1], the “inhibitory activity of reference compounds in the Axl HTRF assay” value is listed as “showed inhibitory activities as expected”.
Same read-out and setting: next, `CCN(CC)CCNC(=O)c1c(C)[nH]c(/C=C2\C(=O)Nc3ccc(F)cc32)c1C` [sunitinib]: “showed inhibitory activities as expected”.
As for `CC(=O)CC(c1ccccc1)c1c(O)c2ccccc2oc1=O` (stereo not drawn) [warfarin], the “melanoma metastases to the lungs and distal organs” value in series [3] (Cbl-b defective mice) is reported as “had no apparent effect”; in series [3] (Cbl-b+/+ and Cbl-b+/- mice, day +16) it was “markedly reduced melanoma metastases”. For the same compound, the metastatic melanomas result in series [3] (low dose warfarin, absence of NK1.1+ cells) is recorded as “abolished the effects of warfarin”. Besides, the “in vivo NK cell cytotoxicity towards RMA-S” value in series [4] was “enhanced in vivo NK cell cytotoxicity”. For the same compound, the “in vivo NK cell cytotoxicity towards RMA-Rae1” value in series [5] is given as “enhanced in vivo NK cell cytotoxicity”. Also, the “prothrombine time / coagulopathy” value in series [6] (0.5mg/l in drinking water for 21 days) is given as “does not cause a coagulopathy”. The bleeding result in series [6] (warfarin-treated mice compared to vehicle controls) is reported as “never observed neither spontaneous nor excessive bleeding”.
